# Patent publication US20050148495A1, “Methods and materials including for treating acne” (priority 2003, published 2005)
# Like-named read-outs stand apart in the source and are kept apart here. Non-standard residues stand in square brackets, D forms with d. Residues, ends and D or L forms follow the SMILES beside them. d1Nal = N[C@H](Cc1cccc2ccccc12)C(=O)O
# Experiments:
# [1] = test system: conscious telemetered cynomolgus monkeys; test: Cardiovascular safety pharmacology test, intravenous infusion, telemetry; type: in vivo, cynomolgus monkey
# Experimental: This safety pharmacology test was performed to assess the possible cardiovascular effects of XMP.629 when administered via intravenous infusion. The test was an acute experiment to identify single-dose-induced side-effects as indicated, for example, in the Guideline for General Pharmacology Studies (Japan Ministry of Health and Welfare PAB/NND Notification No. 4, Jan. 29, 1995, the disclosure of which is incorporated herein by reference).
# A telemetry device/transmitter (Data Sciences, St. Paul, Minn.) was surgically implanted in the subcutaneous pocket over the mid-abdominal region into the test monkeys. The blood pressure catheter of the telemetry device was run sub-cutaneously to the left groin region and inserted into the left femoral artery, with the catheter tip placed into the abdominal aorta. In addition, electrocardiogram leads were sub-cutaneously tunneled to the appropriate anatomical regions (i.e. negative lead paced at the base of the right side of the neck and the positive lead placed within the 5th intercostals space on the left side of the thoracic cage, near the sternum).
# Intravenous administration of XMP.629 was given to conscious cynomolgus primates (four males) via telemetry systems in a series of 4 acute experiments, in which escalating doses were administered over four days, with a 3 to 27-day washout period between doses. Doses were administered over a two-hour period, at a rate of 2 mL/kg/hr. The vehicle, 10 mM sodium acetate buffer, was administered on Day 0, and XMP.629 at dose levels of 5, 10, and 20 mg/kg/2 hrs on days 4, 7, and 34, respectively. The infused volume per dose was calculated using the most recent body weight measurements.
# Viability checks were performed twice daily on the animals. Body weights were obtained from the animals on the day of surgery and one or two days prior to each dose. Cardiovascular assessments and body temperature measurements were collected radiotelemetrically using the implanted telemetry device/transmitter for one 24 hour period prior to the Day 0 dosing session at the same frequency/periods collected on the days of dosing. On each day of dosing, the effect of XMP.629 on various physiological parameters, such as blood pressure waveform, systolic pressure, diastolic pressure, mean pressure, ECG (axial lead) waveform, heart rate, body temperature, QA interval, P-R interval, QRS interval, QT interval, R—R interval, and QTC interval, was observed two hours before the dosing period, every five minutes for 120 minutes during each infusion period, and for 22 hours after termination of infusion (once every five minutes for one hour and then once every 30 minutes for the remaining 21 hours). […]
# [2] = test system: P. acnes; details: for MBC Range: in µg/mL
# Experimental: An in vitro assessment of antibiotic activity in XMP.629 and various known antibiotics against a representative panel of bacterial strains associated with acne was conducted. A broth dilution methodology was employed using guidelines established by National Committee for Clinical Laboratory Standards (NCCLS) for anaerobic organisms to establish an antibacterial profile for XMP.629. Assays to determine the minimal bactericidal concentrations (MBC) and minimal inhibitory concentration (MIC) were conducted for XMP.629 and other known antibiotics.
# Inoculum from a representative panel of bacterial strains associated with acne, such as P. acnes, P. avidum, P. granulosum, and Staphylococcus epidermis was prepared by suspending approximately 5-10 isolated bacterial colonies in pre-reduced MicroScan® Inoculum Water (Dade Behring, Deerfield, Ill.), and growing the bacterial suspension to log phase (approximately 48 hrs). An inoculum of between 1-5×10^6/mL was achieved by adding 100 μL of the suspension to 25 mL Brain Heart Infusion Broth (BHI) (Anaerobe Systems, Morgan Hill, Calif.).
# A stock solution of XMP.629 dissolved in water at a concentration of 4.0 mg/mL was prepared. Dilute solutions of XMP.629 at concentrations ranging from about 1.25 to about 160 μg/mL were made in either water or formulation buffer (130 mM sodium chloride, 0.2% P103 (poloxamer 333), and 0.10% EDTA, pH 7.3).
# Control tubes containing only water or formulation buffer were prepared for each isolate. Initial growth controls were determined by removing 10 μL from the water control tube and diluting it by 100 fold. From this dilution, 10 μL was used for inoculation and for spreading over the surface onto Laked Blood Agar (LBA) (Anaerobe Systems, Morgan Hill, Calif.) plates. The tubes and plates were incubated in an anaerobic atmosphere at 37° C. for 48 h.
# [3] = in vivo; details: both, rat, plasma, po, 10 mg/kg, mean; for bioavailability: % F (bioavailability); for AUC: AUCall
# [4] = ATCC 6919, Formulation Buffer Solvent, Study 1
# [5] = ATCC 6919, Formulation Buffer Solvent, Study 2
# [6] = ATCC 6919, Water Solvent, Study 1
# [7] = ATCC 6919, Water Solvent, Study 2
# [8] = ATCC 6919, XMP.629 composition of Example 5 (Table 12)
# [9] = ATCC 11827, Formulation Buffer Solvent, Study 1
# [10] = ATCC 11827, Formulation Buffer Solvent, Study 2
# [11] = ATCC 11827, Water Solvent, Study 1
# [12] = ATCC 11827, Water Solvent, Study 2
# [13] = ATCC 11828, composition of Example 5
# [14] = Clindamycin Resistant C678, composition of Example 5
# [15] = Clindamycin Resistant C767, composition of Example 5
# [16] = Clindamycin Resistant C768, composition of Example 5
# [17] = Clindamycin Resistant C769, composition of Example 5
# [18] = Clindamycin Resistant C770, composition of Example 5
# [19] = P. acnes strains of Table 7, composition of Example 5
# [20] = P. acnes, Clindamycin resistant, 16 strains
# [21] = P. acnes, Clindamycin sensitive, 20 strains
# [22] = Propionibacterium acnes, 36 strains/clinical isolates, formulation buffer
# [23] = RMA 9833, Formulation Buffer Solvent, Study 1
# [24] = RMA 9833, Formulation Buffer Solvent, Study 2
# [25] = RMA 9833, Water Solvent, Study 1
# [26] = RMA 9833, Water Solvent, Study 2
# [27] = RMA 9833, composition of Example 5
# [28] = RMA 12689, Formulation Buffer Solvent, Study 1
# [29] = RMA 12689, Formulation Buffer Solvent, Study 2
# [30] = RMA 12689, Water Solvent, Study 1
# [31] = RMA 12689, Water Solvent, Study 2
# [32] = RMA 12689, composition of Example 5
# [33] = RMA 12732, Formulation Buffer Solvent, Study 1
# [34] = RMA 12732, Formulation Buffer Solvent, Study 2
# [35] = RMA 12732, Water Solvent, Study 1
# [36] = RMA 12732, Water Solvent, Study 2
# [37] = RMA 12908, Formulation Buffer Solvent, Study 1
# [38] = RMA 12908, Formulation Buffer Solvent, Study 2
# [39] = RMA 12908, Water Solvent, Study 1
# [40] = RMA 12908, Water Solvent, Study 2
# [41] = RMA 12908, composition of Example 5
# [42] = RMA 13399, Formulation Buffer Solvent, Study 1
# [43] = RMA 13399, Formulation Buffer Solvent, Study 2
# [44] = RMA 13399, Water Solvent, Study 1
# [45] = RMA 13399, Water Solvent, Study 2
# [46] = UD 738, composition of Example 5
# [47] = XMP.629 composition of Example 5 (Table 12), P. acnes strains of Table 7
# [48] = 10 mg/kg XMP.629 acetate oral gavage in 5% glucose
# [49] = 10 mg/kg XMP.629 acetate oral gavage in distilled water
smiles,measurement,setting,value
"CC(C)C[C@@H](NC(=O)[C@H](N)CCCCN)C(=O)N[C@H](Cc1ccccc1)C(=O)N[C@H](CCCNC(=N)N)C(=O)N[C@H](Cc1cccc2ccccc12)C(=O)N[C@H](CCC(N)=O)C(=O)N[C@H](C)C(=O)N[C@H](CCCCN)C(=O)N[C@H](Cc1cccc2ccccc12)C(N)=O [XMP.629, NH2-lys-leu-phe-arg-(3-(1-naphthyl)-ala)-gln-ala-lys-(3-(1-naphthyl)-ala)-CONH2] (H-[dK][dL][dF][dR][d1Nal][dQ][dA][dK][d1Nal]-NH2)",Prolongation in prothrombin and activated partial thromboplastin times with decreases in fibrinogen,[1]; 20 mg/kg/2 hrs,2 of 4 animals
same,"heart rate, QA, P-R, QRS, and R-R intervals","[1]; 5, 10, or 20 mg/kg/2 hrs",no effects
same,cardiac findings,[1]; 10 or 20 mg/kg/2 hrs,ventricular extrasystoles and premature ventricular beats
same,"intravenous infusion dose with no adverse, related-effect","[1]; cynomolgus monkey, in vivo, iv",5 mg/kg/2 hrs
same,MBC,[2]; [4],1 µg/mL
same,MIC,[2]; [4],0.5 µg/mL
same,MBC,[2]; [5],0.50 µg/mL
same,MIC,[2]; [5],1 µg/mL
same,MBC,[2]; [6],4 µg/mL
same,MIC,[2]; [6],2 µg/mL
same,MBC,[2]; [7],2 µg/mL
same,MIC,[2]; [7],2 µg/mL
same,MBC,[2]; [8],2 µg/mL
same,MIC,[2]; [8],1 µg/mL
same,MBC,[2]; [9],1 µg/mL
same,MIC,[2]; [9],0.5 µg/mL
same,MBC,[2]; [10],1 µg/mL
same,MIC,[2]; [10],1 µg/mL
same,MBC,[2]; [11],2 µg/mL
same,MIC,[2]; [11],2 µg/mL
same,MBC,[2]; [12],2 µg/mL
same,MIC,[2]; [12],2 µg/mL
same,MBC,[2]; [13],2 µg/mL
same,MIC,[2]; [13],1 µg/mL
same,MBC,[2]; [14],4 µg/mL
same,MIC,[2]; [14],1 µg/mL
same,MBC,[2]; [15],2 µg/mL
same,MIC,[2]; [15],1 µg/mL
same,MBC,[2]; [16],4 µg/mL
same,MIC,[2]; [16],2 µg/mL
same,MBC,[2]; [17],2 µg/mL
same,MIC,[2]; [17],1 µg/mL
same,MBC,[2]; [18],2 µg/mL
same,MIC,[2]; [18],0.5 µg/mL
same,"MIC90, XMP.629 data reported as MBC values",[2]; P. acnes,1 µg/mL
same,MBC Geo. Mean,[2]; [19],2.3 µg/mL
same,MIC Geo. Mean,[2]; [19],0.95 µg/mL
same,MBC50,[2]; [20],1 µg/mL
same,MBC90,[2]; [20],2 µg/mL
same,MBC Range,[2]; [20],1-2
same,MBC50,[2]; [21],1 µg/mL
same,MBC90,[2]; [21],2 µg/mL
same,MBC Range,[2]; [21],0.25-2
same,MBC50,[2]; [22],1 µg/mL
same,MBC90,[2]; [22],2 µg/mL
same,MBC Range,"[2]; Propionibacterium acnes, 36 strains/clinical isolates",0.25-2
same,MBC,[2]; [23],1 µg/mL
same,MIC,[2]; [23],0.5 µg/mL
same,MBC,[2]; [24],2 µg/mL
same,MIC,[2]; [24],1 µg/mL
same,MBC,[2]; [25],2 µg/mL
same,MIC,[2]; [25],1 µg/mL
same,MBC,[2]; [26],2 µg/mL
same,MIC,[2]; [26],2 µg/mL
same,MBC,[2]; [27],1 µg/mL
same,MIC,[2]; [27],0.5 µg/mL
same,MBC,[2]; [28],2 µg/mL
same,MIC,[2]; [28],1 µg/mL
same,MBC,[2]; [29],2 µg/mL
same,MIC,[2]; [29],1 µg/mL
same,MBC,[2]; [30],4 µg/mL
same,MIC,[2]; [30],2 µg/mL
same,MBC,[2]; [31],2 µg/mL
same,MIC,[2]; [31],2 µg/mL
same,MBC,[2]; [32],2 µg/mL
same,MIC,[2]; [32],1 µg/mL
same,MBC,[2]; [33],2 µg/mL
same,MIC,[2]; [33],2 µg/mL
same,MBC,[2]; [34],2 µg/mL
same,MIC,[2]; [34],2 µg/mL
same,MBC,[2]; [35],4 µg/mL
same,MIC,[2]; [35],4 µg/mL
same,MBC,[2]; [36],2 µg/mL
same,MIC,[2]; [36],4 µg/mL
same,MBC,[2]; [37],2 µg/mL
same,MIC,[2]; [37],2 µg/mL
same,MBC,[2]; [38],2 µg/mL
same,MIC,[2]; [38],2 µg/mL
same,MBC,[2]; [39],4 µg/mL
same,MIC,[2]; [39],4 µg/mL
same,MBC,[2]; [40],4 µg/mL
same,MIC,[2]; [40],2 µg/mL
same,MBC,[2]; [41],2 µg/mL
same,MIC,[2]; [41],1 µg/mL
same,MBC,[2]; [42],1 µg/mL
same,MIC,[2]; [42],0.5 µg/mL
same,MBC,[2]; [43],2 µg/mL
same,MIC,[2]; [43],2 µg/mL
same,MBC,[2]; [44],4 µg/mL
same,MIC,[2]; [44],2 µg/mL
same,MBC,[2]; [45],4 µg/mL
same,MIC,[2]; [45],4 µg/mL
same,MBC,[2]; [46],2 µg/mL
same,MIC,[2]; [46],0.5 µg/mL
same,MBC50,[2]; [47],2 µg/mL
same,MBC90,[2]; [47],2 µg/mL
same,bioavailability,[3]; [48],0.0044%
same,bioavailability,[3]; [49],0.0015%
same,AUC,[3]; [48],1.67 ng·h/mL
same,AUC,[3]; [49],0.55 ng·h/mL
same,Cmax,[3]; [48],4.6 ng/mL
same,Cmax,[3]; [49],1.5 ng/mL
same,Tmax,[3]; [48],11.4 min
same,Tmax,[3]; [49],8.4 min
